The experiment has as its system FGFR3 enzyme. Put plainly: FGFR Enzymatic Assay (FRET peptide phosphorylation), FGFR3. It is filed as biochemical. Conditions: IC50 ratio showing FGFR3 selectivity; Table 2A, pre-incubated for 4 hours. As for the experimental part: The inhibitor potency of the exemplified compounds was measured in an enzyme assay that measures peptide phosphorylation using FRET measurements to detect product formation. Inhibitors were serially diluted in DMSO and a volume of 0.5 μL was transferred to the wells of a 384-well plate.
GraphPad prism3 was used to analyze the data.

Where only a bound is given, the exact number is not on record here.

With `COc1cc(OC)c(F)c(N2Cc3cnc(-c4cn(C)nc4C)cc3N(Cc3nnc(C)o3)C2=O)c1F` [Example 46, 3-(2,6-difluoro-3,5-dimethoxyphenyl)-7-(1,3-dimethyl-1H-pyrazol-4-yl)-1-[(5-methyl-1,3,4-oxadiazol-2-yl)methyl]-3,4-dihydropyrido[4,3-d]pyrimidin-2(1H)-one], the FGFR1/FGFR3 was >10 and the FGFR4/FGFR3 is >10.
Take `CCN1C(=O)N(c2c(F)c(OC)cc(OC)c2F)Cc2cnc(-c3cn(CCN4CCOCC4)nc3C)cc21` [Example 49, 3-(2,6-difluoro-3,5-dimethoxyphenyl)-1-ethyl-7-(3-methyl-1-(2-morpholinoethyl)-1H-pyrazol-4-yl)-3,4-dihydropyrido[4,3-d]pyrimidin-2(1H)-one]: the FGFR1/FGFR3 is >5 and the FGFR4/FGFR3 is on record as >1.
As for `CCN1C(=O)N(c2c(F)c(OC)cc(OC)c2F)Cc2cnc(-c3cn(CC(=O)N4CCOCC4)nc3C)cc21` [Example 51, 3-(2,6-difluoro-3,5-dimethoxyphenyl)-1-ethyl-7-(3-methyl-1-(2-morpholino-2-oxoethyl)-1H-pyrazol-4-yl)-3,4-dihydropyrido[4,3-d]pyrimidin-2(1H)-one], the FGFR1/FGFR3 is >1 and the FGFR4/FGFR3 is reported as >1.
Regarding `COc1cc(OC)c(F)c(N2Cc3cnc(-c4cn(CCN5CCOCC5)nc4C)cc3C3(CC3)C2=O)c1F` [Example 52, 2′-(2,6-difluoro-3,5-dimethoxyphenyl)-6′-(3-methyl-1-(2-morpholinoethyl)-1H-pyrazol-4-yl)-1′H-spiro[cyclopropane-1,4′-[2,7]naphthyridin]-3′(2′H)-one], the FGFR1/FGFR3 was >10 and the FGFR4/FGFR3 is on record as >1.
In the case of `CCn1cnc(-c2cc3c(cn2)CN(c2c(F)c(OC)cc(OC)c2F)C(=O)C32CC2)c1` [Example 53, 2′-(2,6-difluoro-3,5-dimethoxyphenyl)-6′-(1-ethyl-1H-imidazol-4-yl)-1′H-spiro[cyclopropane-1,4′-[2,7]naphthyridin]-3′(2′H)-one], the FGFR1/FGFR3 is >5 and the FGFR4/FGFR3 is >5.
In the case of `COc1cc(OC)c(F)c(N2Cc3cnc(-c4cn(C5CCS(=O)(=O)C5)nc4C)cc3C3(CC3)C2=O)c1F` (stereo not shown) [Example 54, 2′-(2,6-difluoro-3,5-dimethoxyphenyl)-6′-[1-(1,1-dioxidotetrahydro-3-thienyl)-3-methyl-1H-pyrazol-4-yl]-1′,2′-dihydro-3′H-spiro[cyclopropane-1,4′-[2,7]naphthyridin]-3′-one], the FGFR1/FGFR3 was >5 and the FGFR4/FGFR3 is listed as >1.
For `COc1cc(OC)c(F)c(N2Cc3cnc(-c4cnn(C5(CC#N)CN(C(C)=O)C5)c4)cc3C3(CC3)C2=O)c1F` [Example 56, 2-(1-acetyl-3-(4-(2′-(2,6-difluoro-3,5-dimethoxyphenyl)-3′-oxo-2′,3′-dihydro-1′H-spiro[cyclopropane-1,4′-[2,7]naphthyridine]-6′-yl)-1H-pyrazol-1-yl)azetidin-3-yl)acetonitrile] the same measures were >5 and >1.
For the molecule `COc1cc(OC)c(F)c(N2Cc3cnc(-c4cn(C)nc4C)cc3N(c3ccnnc3)C2=O)c1F` [Example 57, 3-(2,6-difluoro-3,5-dimethoxyphenyl)-7-(1,3-dimethyl-1H-pyrazol-4-yl)-1-(pyridazin-4-yl)-3,4-dihydropyrido[4,3-d]pyrimidin-2(1H)-one], the FGFR1/FGFR3 is given as >10 and the FGFR4/FGFR3 is given as >10.
`COc1cc(CN2C(=O)N(c3c(F)c(OC)cc(OC)c3F)Cc3cnc(-c4cn(C)nc4C)cc32)ccn1` [Example 58, 3-(2,6-difluoro-3,5-dimethoxyphenyl)-7-(1,3-dimethyl-1H-pyrazol-4-yl)-1-((2-methoxypyridin-4-yl)methyl)-3,4-dihydropyrido[4,3-d]pyrimidin-2(1H)-one]: the FGFR1/FGFR3 is >10 and the FGFR4/FGFR3 is recorded as >10.
Take `COc1ccc(CN2C(=O)N(c3c(F)c(OC)cc(OC)c3F)Cc3cnc(-c4cn(C)nc4C)cc32)cn1` [Example 59, 3-(2,6-difluoro-3,5-dimethoxyphenyl)-7-(1,3-dimethyl-1H-pyrazol-4-yl)-1-((6-methoxypyridin-3-yl)methyl)-3,4-dihydropyrido[4,3-d]pyrimidin-2(1H)-one]: the FGFR1/FGFR3 is listed as >10 and the FGFR4/FGFR3 is on record as >10.
Regarding `COc1cc(OC)c(F)c(N2Cc3cnc(-c4cn(C)nc4C)cc3N(c3cncnc3)C2=O)c1F` [Example 61, 3-(2,6-difluoro-3,5-dimethoxyphenyl)-7-(1,3-dimethyl-1H-pyrazol-4-yl)-1-(pyrimidin-5-yl)-3,4-dihydropyrido[4,3-d]pyrimidin-2(1H)-one], the FGFR1/FGFR3 is listed as >10 and the FGFR4/FGFR3 is >5.
Turning to `CNC(=O)c1ccc(CN2C(=O)N(c3c(F)c(OC)cc(OC)c3F)Cc3cnc(-c4cn(C)nc4C)cc32)cc1` [Example 62, 4-((3-(2,6-difluoro-3,5-dimethoxyphenyl)-7-(1,3-dimethyl-1H-pyrazol-4-yl)-2-oxo-3,4-dihydropyrido[4,3-d]pyrimidin-1(2H)-yl)methyl)-N-methylbenzamide], the FGFR1/FGFR3 is >10 and the FGFR4/FGFR3 is >5.
In the same order, the values of `COc1cc(OC)c(F)c(N2Cc3cnc(-c4cn(C)nc4C)cc3N(c3ccc4ccncc4c3)C2=O)c1F` [Example 63, 3-(2,6-difluoro-3,5-dimethoxyphenyl)-7-(1,3-dimethyl-1H-pyrazol-4-yl)-1-(isoquinolin-7-yl)-3,4-dihydropyrido[4,3-d]pyrimidin-2(1H)-one] are >10 and >5.
For `CCc1cc(CN2C(=O)N(c3c(F)c(OC)cc(OC)c3F)Cc3cnc(-c4cn(C)nc4C)cc32)no1` [Example 64, 3-(2,6-difluoro-3,5-dimethoxyphenyl)-7-(1,3-dimethyl-1H-pyrazol-4-yl)-1-((5-ethylisoxazol-3-yl)methyl)-3,4-dihydropyrido[4,3-d]pyrimidin-2(1H)-one], the FGFR1/FGFR3 is >10 and the FGFR4/FGFR3 was >10.
For the molecule `COc1cc(OC)c(F)c(N2Cc3cnc(-c4cn(C)nc4C)cc3N(Cc3ccncn3)C2=O)c1F` [Example 65, 3-(2,6-difluoro-3,5-dimethoxyphenyl)-7-(1,3-dimethyl-1H-pyrazol-4-yl)-1-(pyrimidin-4-ylmethyl)-3,4-dihydropyrido[4,3-d]pyrimidin-2(1H)-one], the FGFR1/FGFR3 is recorded as >5 and the FGFR4/FGFR3 is given as >10.
For `COc1cc(OC)c(F)c(N2Cc3cnc(-c4cn(C)nc4C)cc3N(c3ccc(F)c(C#N)c3)C2=O)c1F` [Example 66, 5-(3-(2,6-difluoro-3,5-dimethoxyphenyl)-7-(1,3-dimethyl-1H-pyrazol-4-yl)-2-oxo-3,4-dihydropyrido[4,3-d]pyrimidin-1(2H)-yl)-2-fluorobenzonitrile] the same measures were >5 and >5.
In the same order, the values of `CCc1nnc(CN2C(=O)N(c3c(F)c(OC)cc(OC)c3F)Cc3cnc(-c4cn(C)nc4C)cc32)o1` [Example 67, 3-(2,6-difluoro-3,5-dimethoxyphenyl)-7-(1,3-dimethyl-1H-pyrazol-4-yl)-1-((5-ethyl-1,3,4-oxadiazol-2-yl)methyl)-3,4-dihydropyrido[4,3-d]pyrimidin-2(1H)-one] are >5 and >10.

The values above are taken from patent publication US11173162B2, “Bicyclic heterocycles as FGFR4 inhibitors” (Incyte Corporation, priority 2015, dated 2021).
